pIC50: −log10 of the molar value.
Key:
[1] = system: Hh target gene Ptch1 expression in NIH3T3-E1 cells; test: Inhibition of CAPAN-1 conditioned medium-induced Ptch1 mRNA expression, Q-RT-PCR; format: cell-based, mouse; details: CAPAN-1 CM, 72 h
Excerpt: NIH3T3-E1 fibroblasts were obtained from ATCC (Manassas, VA) and cultured, as previously described. CAPAN-1 and PANC-1 human pancreatic cancer cells were obtained from ATCC and cultured in Dulbecco’s Modified Eagle Medium (DMEM) containing 10% heat-inactivated fetal bovine serum (FBS) (Hyclone Laboratories, Logan, UT, USA) and antibiotics, as previously described. The human lung cancer cell lines A549 and H2030 were obtained from ATCC and cultured in RPMI-1640 containing 10% FBS. The human hepatoma cell line HepG2 was obtained from ATCC and cultured in DMEM containing 10% FBS. […]
(§1) Total RNA was extracted with the RNeasy Plus Mini Kit from Qiagen, according to the manufacturer’s instructions. […] The cDNAs were then mixed with Qi SYBR Green Supermix (Bio-Rad, Hercules, CA, USA) for quantitative RT-PCR assay using a Bio-Rad I-cycler IQ quantitative thermocycler. […] Fold changes in gene expression were calculated using the ΔΔCt method. […]
(§2) Figure 3 Inhibition of ligand-induced Hedgehog signaling. […] After 72 h, RNA was extracted and analyzed by Q-RT-PCR for the expression of Hh target genes Gli1 (a,b,d) and Ptch1 (c), and normalized to Oaz1 expression. […] Luciferase activity was measured and normalized to the Renilla luciferase activity. […]

[2] = system: Smo mediated activation of Hh signaling in NIH3T3 cells; test: Inhibition of Hh signaling from allosteric activation of Smo by Oxy133, Q-RT-PCR; format: cell-based, mouse; details: 72 h
Method: (§3) Total RNA was extracted with the RNeasy Plus Mini Kit from Qiagen, according to the manufacturer’s instructions. One microgram of RNA was reverse-transcribed using an iScript Reverse Transcription Supermix from Bio-Rad, to make single-stranded cDNA. The cDNAs were then mixed with Qi SYBR Green Supermix (Bio-Rad, Hercules, CA, USA) for quantitative RT-PCR assay using a Bio-Rad I-cycler IQ quantitative thermocycler. All PCR samples were prepared in triplicate wells in a 96-well plate. After 40 cycles of PCR, melt curves were examined in order to ensure primer specificity. Fold changes in gene expression were calculated using the ΔΔCt method. Primers used for mouse were as follows: Oaz1 (5’-CCACTGCTTCGCCAGAGAG-3’) and (5’-CCCGGACCCAGGTTACTA-3’), Gli1 (5’-[…]-3’ and 5’-[…]-3’), Ptch1 (5’-CCATCGGCGACAAGAACC-3’ and 5’-[…]-3’), Hip (5’-[…]-3’ and 5’-[…]-3’), and Abca1 (5’-[…]-3’ and 5’-[…]-3’). […]
as §2

[3] = system: Hh pathway target genes Gli1, Ptch1, and Hip in Sufu-/- mouse embryonic fibroblasts; test: Inhibition of Hh target gene expression in Sufu-/- MEFs, Q-RT-PCR; format: cell-based; details: 10 µM, 72 h
Excerpt: NIH3T3-E1 fibroblasts were obtained from ATCC (Manassas, VA) and cultured, as previously described. CAPAN-1 and PANC-1 human pancreatic cancer cells were obtained from ATCC and cultured in Dulbecco’s Modified Eagle Medium (DMEM) containing 10% heat-inactivated fetal bovine serum (FBS) (Hyclone Laboratories, Logan, UT, USA) and antibiotics, as previously described. The human lung cancer cell lines A549 and H2030 were obtained from ATCC and cultured in RPMI-1640 containing 10% FBS. The human hepatoma cell line HepG2 was obtained from ATCC and cultured in DMEM containing 10% FBS. Mouse embryonic fibroblasts (MEFs) from suppressor of fused (Sufu) null mice (Sufu^−/−) were provided by Dr. Philip Beachy of Stanford University and cultured in DMEM containing 10% FBS. […]
as §1
Figure 5 Oxy186 acts downstream of Smo. […] After 72 h, RNA was extracted and analyzed by Q-RT-PCR for the expression of Hh target genes Gli1, Ptch1, and Hip, normalized to Oaz1 expression. […] Luciferase activity was measured and normalized to the Renilla luciferase activity. […]

[4] = system: A549 cells; test: Cell counting assay, A549; format: cell-based, human; details: 96 h
Method: (§4) A549 and H2030 cells cultured in 12-well plates at 20% confluence were treated with Oxy186, HPI-1, Gant61, or GDC0449 for 96 hours and then trypsinized and suspended in fresh medium. An aliquot of cell suspension was applied to a hemocytometer and counted under a microscope.
(§5) Figure 6 Inhibition of human pancreatic and lung cancer cell proliferation by Oxy186. (a,c) A549, (b) and (d) H2030, (e) PANC-1, and (f) CAPAN-1 cells were treated with the compounds as indicated in RPMI 1640 (a–d) or DMEM (e,f) containing 5% FBS for 96 h and then were trypsinized and counted. Data from a representative experiment are reported as the mean of triplicate determinations ± SD (* p < 0.05 vs. Control; ** p < 0.01 vs. control).

[5] = system: H2030 cells; test: Cell counting assay, H2030; format: cell-based, human
Method: as §4, §5

[6] = system: Hh target genes, Gli1 and Ptch1; test: Induction of Hh target genes by oxysterol alone in NIH3T3-E1 cells, Q-RT-PCR; format: cell-based, mouse; details: up to 10 µM, no CM
Method: as §3, §2

In the case of `C[C@]12CC[C@H](O)C[C@@H]1CC[C@@H]1[C@@H]2CC[C@@]2(C)[C@H]1CC[C@@H]2[C@](C)(O)CCc1ccc(F)cc1` [Oxy186, (3S,5S,8R,9S,10S,13S,14S,17S)-17-((R)-4-(4-fluorophenyl)-2-hydroxybutan-2-yl)-10,13-dimethylhexadecahydro-1H-cyclopenta[a]phenanthren-3-ol], the “Inhibition of ligand-induced Ptch1 mRNA expression” value [1] was “robustly inhibited”, the “Suppression of Hh signaling from allosteric activation of Smo by Oxy133” value [2] was “significantly suppressed” and the “Inhibition of high baseline expression of Hh pathway target genes Gli1, Ptch1, and Hip” value [3] was “significant inhibition”. The “Inhibition of cell proliferation” value ([4]; 10 µM) was “significantly inhibited”, the pIC50 ([4]; Homo sapiens, read-out: IC50 for inhibition of cell proliferation) was 5.30 and the Anti-proliferative effect ([5]; 96 h) was “significant anti-proliferative effect”. For the same compound, the pIC50 ([5]; Homo sapiens, NCI-H2030, 96 h, read-out: IC50 for inhibition of cell proliferation) was 5.51 and the “Induction of Hh target genes Gli1 and Ptch1” value [6] was “not”.

From paper PMC6562610, “Inhibition of Hedgehog Signaling in Fibroblasts, Pancreatic, and Lung Tumor Cells by Oxy186, an Oxysterol Analogue with Drug-Like Properties” (Cells, 2019)
